We go through 7 compounds from ChEMBL document CHEMBL1128685, “Novel and potent adenosine 3',5'-cyclic phosphate phosphodiesterase III inhibitors: thiazolo[4,5-b][1,6]naphthyridin-2-ones” (J Med Chem, 1995).

Molecules are shown by their SMILES.

As a reminder, the IC50 is the concentration that inhibits the measured activity by half. Read a low IC50 as higher potency.

The target in the experiment is Phosphodiesterase 3 (Homo sapiens, UniProt Q14432+Q13370). Put plainly: Inhibition of cAMP PDE 3. The class given is protein assay.
For `CC(C)Cc1nccc2nc3nc(O)sc3cc12`, the IC50 amounted to 330 nM.

`CCCc1nccc2nc3nc(O)sc3cc12` displayed an IC50 of 67 nM.

As for `Oc1nc2nc3ccnc(-c4ccccc4)c3cc2s1`, the IC50 was 430 nM.

As to `CCc1nccc2nc3nc(O)sc3cc12`, the IC50 came out at 22 nM.

As for `Oc1ccc(-c2nccc3nc4nc(O)sc4cc23)cc1`, the IC50 was found to be 240 nM.

In the case of `Cc1nccc2nc3nc(O)sc3cc12`, the IC50 is 62 nM.

In turn, `O=[N+]([O-])c1cc(-c2nccc3nc4nc(O)sc4cc23)ccc1O` yielded a half-inhibitory concentration (IC50) of 83 nM.
